These results are taken from PMC7105723, “A Ganoderma-Derived Compound Exerts Inhibitory Effect Through Formyl Peptide Receptor 2” (Frontiers in Pharmacology, 2020).

The target of this test is T1, formyl peptide receptor 2 (FPR2) (Homo sapiens, UniProt P25090).
T1 construct: human FPR2 stably expressed in RBL-2H3 cells; FPR2-ICL3-FlAsH/C-terminal ECFP in HEK-293 cells for FRET
T1 sequence (P25090 1-351): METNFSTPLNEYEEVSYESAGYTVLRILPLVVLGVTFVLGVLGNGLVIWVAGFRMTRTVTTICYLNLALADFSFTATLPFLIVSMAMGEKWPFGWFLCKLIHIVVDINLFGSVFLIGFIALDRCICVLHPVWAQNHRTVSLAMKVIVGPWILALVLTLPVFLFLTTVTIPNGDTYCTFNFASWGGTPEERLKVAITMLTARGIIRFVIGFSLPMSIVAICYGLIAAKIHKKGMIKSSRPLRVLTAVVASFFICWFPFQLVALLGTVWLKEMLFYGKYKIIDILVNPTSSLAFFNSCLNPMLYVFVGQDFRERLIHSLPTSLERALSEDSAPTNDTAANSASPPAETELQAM
Kind of test: competition with WK(FITC)YMVm on RBL-FPR2 cells by flow cytometry (partial); FlAsH FRET conformational change. Type of test: cell-based.

The IC50 is the midpoint of a concentration-inhibition curve. Low values mean higher potency, high ones lower potency. For `CC(C)=CCC/C(C)=C/CC/C(=C/Cc1cc(O)ccc1O)CO` [C18, ganomycin F], the IC50 is 3.2 µM.
